Structures can show the parent of a compound that is named as a salt.

This assay concerns the target T1, IRAK-4 enzyme (Homo sapiens, UniProt Q9NWZ3).
T1 construct: purchased Millipore, USA
T1 sequence (Q9NWZ3 1-460): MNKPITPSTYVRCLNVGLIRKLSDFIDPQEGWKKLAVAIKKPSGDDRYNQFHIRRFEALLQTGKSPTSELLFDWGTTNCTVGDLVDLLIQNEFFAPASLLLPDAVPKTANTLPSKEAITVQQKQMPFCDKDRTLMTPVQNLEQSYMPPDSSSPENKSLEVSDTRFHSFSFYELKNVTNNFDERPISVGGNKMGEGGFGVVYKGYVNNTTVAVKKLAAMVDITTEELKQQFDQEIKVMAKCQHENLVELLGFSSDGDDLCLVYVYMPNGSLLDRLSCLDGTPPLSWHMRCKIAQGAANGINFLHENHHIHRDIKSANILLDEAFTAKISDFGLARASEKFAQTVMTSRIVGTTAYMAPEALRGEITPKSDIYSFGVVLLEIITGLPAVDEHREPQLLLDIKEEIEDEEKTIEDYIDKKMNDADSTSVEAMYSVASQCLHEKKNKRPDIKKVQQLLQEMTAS
The assay is described as follows: IRAK-4 Biochemical Assay (TR-FRET). To be noted: recombinant IRAK-4 kinase, 20 μM ATP.

Take `Cc1ccc(C(=O)Nc2cc3cn(C)nc3cc2N2CCCCC2)nc1N1CCC(O)CC1` [Example 60, 6-(4-hydroxypiperidin-1-yl)-5-methyl-N-(2-methyl-6-(piperidin-1-yl)-2H-indazol-5-yl)picolinamide]: the inhibition at 0.1 µM (0.1 μM compound) turned out to be 73%. Further, the inhibition at 1 µM (1 μM compound) was determined as 97%.
Taken in the same sequence, the figures for `COCCn1cc2cc(NC(=O)c3cccc(N4CCC(O)C4)n3)c(N3CCCCC3)cc2n1` (stereo not shown) [Example 61, 6-(3-hydroxypyrrolidin-1-yl)-N-(2-(2-methoxyethyl)-6-(piperidin-1-yl)-2H-indazol-5-yl)picolinamide] were 94% and 97%.
`COc1ccc(C(=O)Nc2cc3cn(C)nc3cc2N2CCCCC2)nc1N1CCC(O)C1` (stereo not shown) [Example 62, 6-(3-hydroxypyrrolidin-1-yl)-5-methoxy-N-(2-methyl-6-(piperidin-1-yl)-2H-indazol-5-yl)picolinamide]: the inhibition at 0.1 µM (0.1 μM compound) turned out to be 9%. Further, the inhibition at 1 µM (1 μM compound) came to 21%.
For `Cn1cc2cc(NC(=O)c3ccnc(N4CCC(O)C4)n3)c(N3CCCCC3)cc2n1` (stereo not shown) [Example 63, 2-(3-hydroxypyrrolidin-1-yl)-N-(2-methyl-6-(piperidin-1-yl)-2H-indazol-5-yl)pyrimidine-4-carboxamide], in that order: 79% and 96%.
On to `O=C(Nc1cc2cn(CCN3CCOCC3)nc2cc1N1CCCCC1)c1cccc(N2CCC(O)C2)n1` (stereo not shown) [Example 64, 6-(3-hydroxypyrrolidin-1-yl)-N-(2-(2-morpholinoethyl)-6-(piperidin-1-yl)-2H-indazol-5-yl)picolinamide], for which the inhibition at 0.1 µM (0.1 μM compound) was determined as 96%. The inhibition at 1 µM (1 μM compound) came to 97%.
For `Cn1cc2cc(NC(=O)c3cncc(N4CCC(O)C4)n3)c(N3CCCCC3)cc2n1` (stereo not shown) [Example 65, 6-(3-hydroxypyrrolidin-1-yl)-N-(2-methyl-6-(piperidin-1-yl)-2H-indazol-5-yl)pyrazine-2-carboxamide], in that order: 91% and 98%.
Taken in the same sequence, the figures for `Cn1cc2cc(NC(=O)c3cncc(N4CCC(O)C4)n3)c(C3CC3)cc2n1` (stereo not shown) [Example 66, N-(6-cyclopropyl-2-methyl-2H-indazol-5-yl)-6-(3-hydroxypyrrolidin-1-yl)pyrazine-2-carboxamide hydrochloride] were 23% and 75%.
Turning to `Cl.Cn1cc2cc(NC(=O)c3cncc(N4CCC(O)C4)n3)c(N3CCCCC3)cc2n1` (stereo not shown) [Example 67, 6-(3-hydroxypyrrolidin-1-yl)-N-(2-methyl-6-(piperidin-1-yl)-2H-indazol-5-yl)pyrazine-2-carboxamide hydrochloride], the “% inhibition of IRAK-4 activity @0.1 μM” value (0.1 μM compound) turned out to be 82%. The “% inhibition of IRAK-4 activity @1 μM” value (1 μM compound) came to 92%.
On to `Cn1cc2cc(NC(=O)c3cccc(N4CCC(O)C4)n3)c(N3CCOCC3)cc2n1` (stereo not shown) [Example 68, 6-(3-hydroxypyrrolidin-1-yl)-N-(2-methyl-6-morpholino-2H-indazol-5-yl)picolinamide], for which the inhibition at 0.1 µM (0.1 μM compound) stood at 75%. Further, where the note is “1 μM compound”, the inhibition at 1 µM is 96%.
Taken in the same sequence, the figures for `Cn1cc2cc(NC(=O)c3cc(N4CCC(O)C4)ccn3)c(N3CCCCC3)cc2n1` (stereo not shown) [Example 69, 4-(3-hydroxypyrrolidin-1-yl)-N-(2-methyl-6-(piperidin-1-yl)-2H-indazol-5-yl)picolinamide] were 7% and 9%.
For `Cc1cc2nn(C)cc2cc1NC(=O)c1cccc(N2CCC(O)C2)n1` (stereo not shown) [Example 70, N-(2,6-dimethyl-2H-indazol-5-yl)-6-(3-hydroxypyrrolidin-1-yl)picolinamide], in that order: 27% and 82%.
Taken in the same sequence, the figures for `Cn1cc2cc(NC(=O)c3cc(N4CCC(O)C4)ccn3)c(C3CC3)cc2n1` (stereo not shown) [Example 71, N-(6-cyclopropyl-2-methyl-2H-indazol-5-yl)-4-(3-hydroxypyrrolidin-1-yl)picolinamide hydrochloride] were 67% and 95%.
`Cn1cc2cc(NC(=O)c3ccnc(N4CCC(O)C4)n3)c(C3CC3)cc2n1` (stereo not shown) [Example 72, N-(6-cyclopropyl-2-methyl-2H-indazol-5-yl)-2-(3-hydroxypyrrolidin-1-yl)pyrimidine-4-carboxamide]: under “0.1 μM compound”, the inhibition at 0.1 µM was found to be 29%. Under “1 μM compound”, the inhibition at 1 µM was found to be 86%.
Taken in the same sequence, the figures for `Cn1cc2cc(NC(=O)c3ccc(N4CCC(O)C4)cn3)c(N3CCCCC3)cc2n1` (stereo not shown) [Example 73, 5-(3-hydroxypyrrolidin-1-yl)-N-(2-methyl-6-(piperidin-1-yl)-2H-indazol-5-yl)picolinamide] were 10% and 51%.

These data come from US20180201609A1 (AURIGENE DISCOVERY TECHNOLOGIES LIMITED, priority 2015, published 2018).
